Drawing on PubChem BioAssay (NCI), this text covers TGI for 14 molecules.

The structures appear in SMILES notation.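 Five compound concentrations were applied to cells in 96-well plates for 48 hours; endpoints were derived by simple linear interpolation of the resulting dose-response curve. TGI denotes the concentration required for complete inhibition of growth.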 Where only a bound is given, the exact number is not on record here.

Common to all, as to assay: NCI tumour cell line growth inhibition, 48 h
Assay [1] concerns RXF 393 renal.
Assay [2] has as its system A498 renal.
Assay [3] concerns SF-268 CNS.
Assay [4] concerns HCT-15 colon.
Assay [5] relates to EKVX NSCLC.
Assay [6] relates to UO-31 renal.
The test system of assay [7] is CAKI-1 renal.
Assay [8] relates to SK-MEL-28 melanoma.
Assay [9] has as its system SNB-19 CNS.
Assay [10] deals with HOP-62 NSCLC.
In assay [11] the test system is 786-0 renal.
Assay [12] has as its system U251 CNS.
In assay [13] the test system is SF-539 CNS.
Assay [14] concerns SF-295 CNS.
Assay [15] has as its system MDA-MB-435.
Assay [16] has as its system NCI-H226 lung.
Assay [17] has as its system NCI/ADR-RES ovarian.
The test system of assay [18] is SNB-75 CNS.
For assay [19], the system named is SK-MEL-2 melanoma.
In assay [20] the test system is SK-OV-3 ovarian.

For the molecule `CN(C)Cc1cc(C(=O)/C=C/c2ccc(Cl)c(Cl)c2)cc(CN(C)C)c1O`, the TGI in assay [1] came to 11.1 µM; in [2] it was 11.1 µM; in assay [3], 13.2 µM; in [4], 12.7 µM; in [5], 20.8 µM; in assay [6], 5.39 µM. Besides, the TGI in assay [7] amounted to 4.08 µM; in assay [8], 10.3 µM; in [9], 11.6 µM; in assay [10], 6.45 µM; in [11], 3.09 µM; in assay [12] it was 13.6 µM. In addition, the TGI amounted to 8.93 µM in assay [13]; 12.1 µM in assay [14]; 13.2 µM in assay [15]; 13.5 µM in assay [16]; 7.85 µM in [17].

Turning to `O=C(Cc1ccccc1)NN1C(=O)/C(=C\c2cccc([N+](=O)[O-])c2)SC1=Nc1ccccc1`, the TGI in [1], in [2], in assay [18], in [3], in [4] and in [5] was greater than 100 µM each time. In addition, the TGI in assay [6], in assay [8], in assay [9], in assay [10], in assay [11] and in assay [12] was greater than 100 µM throughout. In addition, the TGI in assay [13], in assay [14], in [15], in [16], in [19] and in [20] was greater than 100 µM in each case. Further, in assay [17], the TGI is greater than 100 µM.

As for `O=c1[nH]c(N/N=C\C(=N/Nc2nc3ccccc3c(=O)[nH]2)C(O)C(O)C(O)CO)nc2ccccc12` (configuration not stated), the TGI in [2], in assay [18], in assay [3], in assay [4], in [5] and in assay [6] was greater than 100 µM in each case. The TGI in [7], in assay [8], in [9], in assay [10], in assay [11] and in assay [12] was greater than 100 µM throughout. Further, the TGI in assay [13], in [14], in assay [15], in [16], in assay [19] and in [20] was greater than 100 µM throughout. The same molecule had a TGI in [17] greater than 100 µM.

In the case of `O=C(O)c1ccccc1CC1Cc2cc3c(cc2C1)CCC3`, the TGI in assay [1], in assay [2], in [18], in assay [3], in assay [4] and in assay [5] was greater than 100 µM throughout. Moreover, the TGI in [6], in [8], in assay [9], in assay [10], in [11] and in [12] was greater than 100 µM each time. The TGI in assay [13], in [14], in [15], in assay [16], in [19] and in assay [20] was greater than 100 µM in each case. The TGI in [17] was greater than 100 µM.

With `CC(C)(Oc1ccc(Cl)cc1)C(=O)N(C(=O)N1CCCCC1)c1ccccc1`, the TGI was determined as 33.3 µM in assay [1]; 32.8 µM in [2]; 56.7 µM in assay [3]; 24.6 µM in assay [4]; 21.9 µM in assay [5]; 42 µM in assay [6]. Besides, the TGI amounted to 29.9 µM in [7]; 44.6 µM in assay [8]; 42.5 µM in assay [9]; 27.6 µM in assay [11]; 39.2 µM in [12]; 25.3 µM in assay [13]. The TGI in [15] is greater than 100 µM; in assay [16], 51 µM; in assay [19], 32 µM; in assay [20] it was 40.4 µM; in assay [17], 37.4 µM.

For the molecule `CNC(=O)C1(C#N)C(c2ccccc2)C(C#N)(C(=O)NC)C1c1ccccc1` (configuration not stated), the TGI in assay [2], in assay [18], in [3], in assay [4], in assay [5] and in [6] was greater than 100 µM each time. Moreover, the TGI in assay [7], in assay [8], in assay [9], in [10], in assay [11] and in assay [12] was greater than 100 µM throughout. Further, the TGI in assay [13], in assay [14], in [15], in assay [16], in assay [19] and in assay [20] was greater than 100 µM throughout. Besides, the TGI in assay [17] is greater than 100 µM.

As for `COc1cc2c(c(O)c1OC)C(=O)[C@@H]1CCC(=O)N1C2c1ccccc1` (some centres not stated), the TGI in [2], in assay [18], in assay [3], in assay [4], in [5] and in assay [6] was greater than 100 µM each time. The TGI in [7], in assay [8], in assay [9], in [10], in assay [11] and in assay [12] was greater than 100 µM each time. Besides, the TGI in assay [13], in assay [14], in [15], in [16], in assay [19] and in assay [20] was greater than 100 µM each time. Further, the TGI in assay [17] was greater than 100 µM.

Take `C=C1C[C@@H]2O[C@H]3[C@H]4[C@@H](C[C@@H](C)[C@@H](OC(C)=O)[C@H]42)[C@@H](C)CO[C@@]3(C)[C@H](OC(=O)CCCCCCC)C[C@H]1O`: the TGI came to 36.1 µM in assay [1]; 30.8 µM in assay [2]; 32.6 µM in assay [18]; 31.1 µM in [3]; 30.4 µM in assay [4]; 31 µM in [5]. For the same molecule, the TGI in [6] came out at 29.7 µM; in [7] it was 28 µM; in [8], 32.7 µM; in [9], 32.4 µM; in assay [10], 32.9 µM; in assay [11], 28.9 µM. Also, the TGI in assay [12] is 30.6 µM; in [13] it was 40.5 µM; in assay [14] it was 36.4 µM; in [15], 34.8 µM; in assay [16], 26.1 µM; in [19], 36.7 µM. In assay [17], this molecule yielded a TGI of 30.7 µM.

Regarding `CC(=O)Nc1ccc(C(=O)NN2C(=O)CSC2c2ccc(O)cc2)cc1` (configuration not stated), the TGI in assay [1], in [2], in assay [18], in [3], in assay [4] and in assay [5] was greater than 100 µM throughout. For the same molecule, the TGI in [6], in assay [8], in assay [9], in [10], in assay [11] and in [12] was greater than 100 µM in each case. Further, the TGI in [13], in assay [14], in assay [15], in [16], in [19] and in [20] was greater than 100 µM each time. The TGI in assay [17] was greater than 100 µM.

Turning to `O=c1cc(NNCc2ccccc2)[nH]c(=O)[nH]1`, the TGI in assay [1], in assay [2], in assay [3], in [4], in assay [5] and in assay [6] was greater than 100 µM throughout. In addition, the TGI in assay [7], in assay [8], in assay [9], in [10], in assay [11] and in assay [12] was greater than 100 µM in each case. Besides, the TGI in assay [13], in assay [14], in assay [15], in [16] and in assay [17] was greater than 100 µM each time.

Regarding `CC(C)(C)C1CCC2c3c([nH]c4ccccc34)C3C(=O)N(c4ccccc4[N+](=O)[O-])C(=O)C3C2C1` (configuration not stated), the TGI in assay [1] was 19 µM; in assay [2], 36.5 µM; in assay [4] it was 37.6 µM; in [5], 44.7 µM; in assay [6], greater than 100 µM; in [7], 32.4 µM. Also, the TGI in assay [9] stood at 82.5 µM; in assay [10], 21.5 µM; in [11], 28.9 µM; in assay [12] it was 40.3 µM; in assay [13], 61.3 µM; in assay [14], 31.2 µM. In addition, the TGI was greater than 100 µM in assay [15]; 57.2 µM in assay [16]; 35.6 µM in [19]; greater than 100 µM in assay [20]; greater than 100 µM in assay [17].

As to `C=C(C)[C@@H]1CCC2=C[C@H](C/C(C)=C\C3=CC(C)=C(O3)[C@H]1O)OC2=O`, the TGI in [1], in [2], in assay [18], in assay [3], in assay [4] and in assay [5] was greater than 100 µM each time. Further, the TGI in [6], in assay [7], in [8], in assay [9], in assay [11] and in assay [12] was greater than 100 µM each time. For the same molecule, the TGI in assay [13], in assay [14], in assay [15], in assay [16], in [19] and in assay [17] was greater than 100 µM in each case.

As to `Oc1[nH]c(=S)[nH]c1/C=C1/C(c2ccccc2)=Nc2ccccc21`, the TGI in [1] was 28.7 µM; in assay [2], 25.3 µM; in assay [18] it was 28.8 µM; in assay [3], greater than 100 µM; in assay [4], 31.2 µM; in [5], 36.4 µM. Further, the TGI worked out at 21.4 µM in assay [6]; 37.5 µM in [7]; 30.3 µM in assay [8]; 76.3 µM in [9]; 29.1 µM in assay [10]; 28.4 µM in [11]. In addition, the TGI in [12] stood at 34.9 µM; in assay [13], 31.2 µM; in assay [14], 26.5 µM; in assay [15], 26.7 µM; in assay [16], 35.8 µM; in assay [19], 26 µM. For the same molecule, the TGI in [17] worked out at 51.7 µM.

For `COc1ccc2c(C)c(Oc3c(Cl)c(Cl)c(O)c(C#N)c3C#N)oc2c1`, the TGI in [2], in assay [18], in [3], in assay [4], in assay [5] and in assay [6] was greater than 100 µM in each case. Also, the TGI in assay [7], in assay [8], in [9], in assay [10], in assay [11] and in [12] was greater than 100 µM in each case. The TGI in assay [13], in assay [14], in [15], in assay [16], in assay [19] and in assay [20] was greater than 100 µM throughout. The molecule further returned a TGI in [17] greater than 100 µM.
